The values that follow come from the METLIN SMRT retention time set (Domingo-Almenara et al. 2019).

A short description of the data set: gradient 5% acetonitrile 3 min, to 50% in 2 min, to 85% in 15 min, held 3 min, 100 µL/min. As to conditions: column: Zorbax Extend-C18 2.1 x 50 mm; eluents: water / acetonitrile, 0.1% formic acid. The procedure, abridged: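 Using water and acetonitrile that each contained 0.1% formic acid, mixtures of ~100 pure standards were separated at 100 μL/min on a Zorbax Extend-C18 column (2.1 × 50 mm, 1.8 μm). The HPLC fed a quadrupole time-of-flight mass spectrometer working in positive and negative ionization mode, with dead and dwell volumes of 40 μL and 900 μL. Data were acquired over 3 months. Retention time was read from computationally picked adduct peaks after manual inspection of each.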
With `O=C(c1cc2c(s1)-c1ccccc1S(=O)(=O)C2)N1CCN(c2ccccn2)CC1`, the RP-LC retention time was determined as 605 s.

The compound `COC[C@@H]1CN(c2cnccn2)C[C@H]1C(=O)NCC1CC1` returned an RP-LC retention time of 594 s.

`O=C(NCCc1ccccc1)N1CCC(c2noc(-c3cnccn3)n2)C1` (centres undefined) returned an RP-LC retention time of 715 s.

In turn, `CCn1nccc1-c1cccc(-c2noc(-c3cc(Cl)ccc3F)n2)c1` registered an RP-LC retention time of 1300 s.

In the case of `COC(=O)C1C(=O)C2=C(CC1C)NC(=O)CC2c1cccc(Cl)c1` (centres undefined), the RP-LC retention time is 773 s.

As to `COc1cccc(-c2noc(CSc3nccn3-c3ccccc3)n2)c1OC`, the RP-LC retention time turned out to be 857 s.

Turning to `CCOc1ccc(-n2nnnc2CNC(=O)Nc2cccs2)cc1`, the RP-LC retention time is 722 s.

`CCn1cc(C(=O)Nc2ccc(Cl)cc2)c(S(=O)(=O)N2CCSCC2)n1` showed an RP-LC retention time of 892 s.

Compound `CCOc1cccc(CN2C[C@@H]3C(=O)N(Cc4ccc5c(c4)OCO5)C(=O)[C@@H]3C2)c1` returned an RP-LC retention time of 770 s.

With `CC(C)C(=O)NCCc1csc(C2CCN(C(=O)NC(C)(C)C)CC2)n1`, the RP-LC retention time stood at 681 s.

In turn, `Cc1ccccc1-c1noc(Cn2c(=O)n(C(C)C)c(=O)c3ccccc32)n1` returned an RP-LC retention time of 1160 s.

`O=C(CCn1nnc2cc(-c3noc(-c4ccc(C(F)(F)F)cc4)n3)ccc21)N1CCOCC1` yielded an RP-LC retention time of 974 s.

As for `COCCN(CC(=O)N1CCc2sccc2C1COc1ccccc1)C(=O)COC` (centres undefined), the RP-LC retention time amounted to 787 s.

In turn, `Cc1nc(-c2ccc3c(c2)n(CC(=O)N2CCC4(CC2)OCCO4)c(=O)n3C(C)C)no1` came in with an RP-LC retention time of 720 s.

Compound `Cc1ccc(-c2csc(NC(=O)Cc3csc(C)n3)n2)cc1` had an RP-LC retention time of 930 s.

Compound `O=C(c1ccn2c(-c3cccc(Cl)c3)nnc2c1)N1CCN(c2ccccn2)CC1` returned an RP-LC retention time of 608 s.

Compound `Cc1csc(CN2CCN(C(=O)c3cc(Cl)ccc3Cl)CC2)n1` had an RP-LC retention time of 654 s.

In the case of `O=C(NCCc1ccco1)c1cc2n(n1)CCCN(Cc1cccc(F)c1)C2=O`, the RP-LC retention time was found to be 751 s.

Compound `Fc1ccc(-c2noc(-c3ccc(NCCN4CCOCC4)nc3)n2)cc1` displayed an RP-LC retention time of 687 s.

Regarding `Cc1ccc(-c2noc(C3CCCN3C(=O)CNC(=O)C(c3ccccc3)c3ccccc3)n2)cc1` (centres undefined), the RP-LC retention time was determined as 1100 s.

For the compound `COc1ccccc1N1CCN(C(=O)c2sc3cccc(F)c3c2OC)CC1`, the RP-LC retention time came out at 1050 s.

The compound `O=C(Nc1ccc2c(c1)OCO2)C(=O)c1cccn1Cc1ccc(F)cc1` yielded an RP-LC retention time of 1050 s.

As for `Cc1cc(C)cc(N2CC(c3nc(-c4ccccc4F)no3)CC2=O)c1` (centres undefined), the RP-LC retention time worked out at 1010 s.

Consider `COc1ccc(S(=O)(=O)Nc2cc(-c3cn4ccc(C)cc4n3)ccc2C)cc1`, for which the RP-LC retention time turned out to be 662 s.

`COc1ccc(S(=O)(=O)N2C[C@@H](F)C[C@H]2C(=O)N2CCOCC2)cc1OC` registered an RP-LC retention time of 640 s.

Consider `Cc1cc(-c2nnc(-c3ccc(F)cc3)o2)c(C)n1CC(=O)Nc1cccc(F)c1`, for which the RP-LC retention time came to 987 s.

Consider `CN(C)c1nc2cc(C(=O)N3CCC4(CC3)OCCO4)sc2n1-c1ccc(F)cc1`, for which the RP-LC retention time is 654 s.

The compound `COc1cccc(N2CCN(c3ccnc(SCC(=O)Nc4ccc(F)cc4)n3)CC2)c1` showed an RP-LC retention time of 768 s.

On to `COCc1nncn1C1CN(C(=O)Nc2ccc(Cl)cc2C(F)(F)F)C1`, for which the RP-LC retention time was 963 s.

For `O=C(NC1CC1)c1ccc(OCC2CCN(C(=O)c3ccccc3C(F)(F)F)CC2)cc1`, the RP-LC retention time was 836 s.

`O=S(=O)(c1ccc(F)cc1F)N1CCc2nc(-c3ccc(Cl)cc3)ncc2C1` came in with an RP-LC retention time of 1200 s.

The compound `O=C(Cn1ccc2c(SCc3ccc(F)cc3)nccc21)N1CCN(c2ccccn2)CC1` yielded an RP-LC retention time of 595 s.

Turning to `CCOC(=O)c1noc2nc(C)nc(N(C)Cc3ccccc3)c12`, the RP-LC retention time stood at 1060 s.

For the compound `CCn1ccc2cc(S(=O)(=O)N3CCCC(C(=O)NC4CCCCCC4)C3)ccc21` (centres undefined), the RP-LC retention time was determined as 1080 s.

`O=C(NC1CCCC1)c1ccc2c(c1)CC(=O)N2Cc1ccc(F)cc1` displayed an RP-LC retention time of 824 s.

Turning to `Cc1ccc(C)c(NC(=O)Nc2ccc(-c3cn4ccc(C)nc4n3)cc2)c1`, the RP-LC retention time stood at 690 s.

Compound `Cc1nnc2c(NC(=O)c3ccccn3)cccn12` yielded an RP-LC retention time of 659 s.

On to `O=S(=O)(Cc1ccccc1)N1CCC(c2noc(-c3cccnc3)n2)C1` (centres undefined), for which the RP-LC retention time was 822 s.

`COc1ccc(-c2csc(Nc3ccc(C)cc3)n2)cc1` yielded an RP-LC retention time of 1190 s.

On to `COc1cccc(CNC(=O)Nc2ccc(-c3nc(-c4cc(C)ccc4C)co3)cc2)c1`, for which the RP-LC retention time was determined as 1180 s.

Consider `CSc1cccc(NC(=O)Cn2c(=O)n(-c3cccc(C)c3)c(=O)c3c2cc(C)n3C)c1`, for which the RP-LC retention time came out at 920 s.

As for `O=C(Cn1c(=O)oc2ccccc21)Nc1nc(-c2nc3ccccc3s2)cs1`, the RP-LC retention time is 866 s.

In turn, `CCC(CC)NC(=O)C1CCN(c2nc3ccc(-c4cncnc4)nc3s2)CC1` yielded an RP-LC retention time of 810 s.

`CCCNC(=O)CCNc1c(-c2ccc(F)cc2)nc2cnccn12` showed an RP-LC retention time of 648 s.

The compound `COCCN1C(=O)CCc2cc(NS(=O)(=O)c3ccc(Cl)cc3)ccc21` had an RP-LC retention time of 771 s.

Consider `CCn1cc(C(=O)Nc2ccc(C)cc2Cl)c2cccnc21`, for which the RP-LC retention time is 984 s.

As for `Cc1nc2ccccc2nc1NS(=O)(=O)c1ccc(N)cc1`, the RP-LC retention time was found to be 764 s.

The compound `CCSc1nc2ccc(NS(=O)(=O)c3ccc(C)c(C)c3)cc2s1` showed an RP-LC retention time of 1080 s.

In the case of `Cc1ccc(S(=O)(=O)N2CCC(C)CC2)cc1-c1nnc(-c2ccc(F)cc2)o1`, the RP-LC retention time was 1220 s.

In the case of `CC(C)(C)NC(=O)CSc1nc(-c2cccs2)cc(C(F)(F)F)c1C#N`, the RP-LC retention time was 991 s.

`O=C(Nc1cccc(Cl)c1)Nc1cnn(-c2ncncc2N2CCOCC2)c1` came in with an RP-LC retention time of 735 s.

`COc1ccc(C(=O)Nc2cc(-c3cccnc3)no2)cc1`: the RP-LC retention time stood at 721 s.

`COC(=O)c1ccc(NC(=O)C2CCCN(c3nc4ccccc4nc3OC)C2)cc1` (centres undefined): the RP-LC retention time was determined as 1120 s.

Turning to `O=C(Cc1cccs1)Nc1ccc(-c2nnc3n2CCCC3)cc1`, the RP-LC retention time came to 640 s.

Compound `COc1cccc(NC(=O)Cn2c(N3CCCCC3)nc(C)cc2=O)c1` had an RP-LC retention time of 658 s.

In turn, `CN(c1cccc(NC(=O)C2CCN(S(=O)(=O)Cc3ccccc3)CC2)c1)S(C)(=O)=O` returned an RP-LC retention time of 806 s.

`CC(C)C(NC(=O)Nc1ccc2c(c1)OCO2)C(=O)N1CCc2ccccc21` (centres undefined) had an RP-LC retention time of 898 s.

Compound `Cc1nnc2n1CCC(NC(=O)c1ccoc1)CC2` (centres undefined) came in with an RP-LC retention time of 532 s.

In turn, `Cc1oc(-c2[nH]ncc2C(=O)N2CCCC2)cc1S(=O)(=O)NCCCc1ccccc1` returned an RP-LC retention time of 799 s.

`O=C(Nc1ccc(N2CCOCC2)cc1)C1(CCO)CCN(c2ncccn2)C1` (centres undefined) returned an RP-LC retention time of 549 s.

The compound `COc1ccc(CN2CCC(C3CCN(S(C)(=O)=O)CC3)C2)cc1OC` (centres undefined) came in with an RP-LC retention time of 580 s.

In the case of `CCN1CCN(CC2=C(C(=O)OC)C(c3ccccc3C)NC(=O)N2)CC1` (centres undefined), the RP-LC retention time was determined as 615 s.

In turn, `Cc1cccc(N2CCN(C(=O)c3ccc4c(c3)N(C)C(=O)C3CCCCN43)CC2)c1C` (centres undefined) yielded an RP-LC retention time of 1170 s.

In the case of `Cc1cc(C2CCCN2C(=O)Nc2ccccc2C(F)(F)F)on1` (centres undefined), the RP-LC retention time was 812 s.

Compound `CCN1CCn2cc(C(=O)N3CCN(c4ccccc4Cl)CC3)nc2C1` showed an RP-LC retention time of 622 s.

In turn, `Cc1cccc(N2CCN(C(=O)c3cn(-c4ccc(C#N)cc4)cn3)CC2)c1` came in with an RP-LC retention time of 759 s.

In turn, `Cc1nnc2ccc(S(=O)(=O)N(Cc3ccc(F)cc3)c3ccc(F)cc3)cn12` displayed an RP-LC retention time of 892 s.

For the compound `CCc1nnc2cc(N3CCN(S(=O)(=O)c4ccc(C)cc4)CC3)cnn12`, the RP-LC retention time is 732 s.

`COc1ccc(CCC(=O)N2CCC(c3cc(N)on3)CC2)cc1` had an RP-LC retention time of 681 s.

`O=C(CN1CCCc2nc(C3CC3)ncc2C1=O)NCc1ccco1` returned an RP-LC retention time of 663 s.

`O=c1c(NCCN2CCCC2)nc2ccncc2n1Cc1ccccc1` displayed an RP-LC retention time of 876 s.

`Cc1ccc(NS(=O)(=O)c2c(C)nc3sc4cc(C)ccc4n3c2=O)c(C)c1` came in with an RP-LC retention time of 1230 s.

In turn, `CC(C)Oc1ccc(-c2noc(Cn3c(=O)n(-c4cccc(F)c4)c(=O)c4sccc43)n2)cc1` registered an RP-LC retention time of 1090 s.

Compound `O=C(c1c(F)cccc1F)N(CC1CCOC1)C1CC1` (centres undefined) gave an RP-LC retention time of 769 s.

Regarding `CN1C(=O)C2CCCCN2c2ccc(C(=O)NCCc3c[nH]c4ccc(Cl)cc34)cc21` (centres undefined), the RP-LC retention time stood at 921 s.

Consider `Cc1ccc(-n2c(=O)c3sccc3n(Cc3nc(-c4cccc(C)c4)no3)c2=O)cc1`, for which the RP-LC retention time turned out to be 1060 s.

Compound `Fc1cccc(-c2noc(-c3cc(N4CCOCC4)nc4ccccc34)n2)c1` returned an RP-LC retention time of 1240 s.

In turn, `O=C(NCCc1csc(C2CCCN(C(=O)C3CCC3)C2)n1)C1CCC1` (centres undefined) had an RP-LC retention time of 719 s.

Take `CC(C(=O)N1CCN(C)CC1)n1c2ccccc2c2cnn(C)c(=O)c21` (centres undefined): the RP-LC retention time was 612 s.
